Source: US9598387B2 (Southern Research Institute, priority 2012, dated 2017)

Experiments:
[1] = test system: Long Evans rats; experiment: Cocaine self-administration under PR schedule of reinforcement; assay type: in vivo, rat; settings: 3.75, 7.5 or 15 mg/kg intraperitoneally 10 minutes prior to session; compared to vehicle, ps<0.05; cocaine 0.375, 0.75, […]
Experimental: These studies were performed using Long Evans rats using standard protocols (Quinlan M. G. et al. Psychopharmacol. 2004, 175, 53-59; Ranaldi, R. et al. Behav. Pharmacol. 2011, 22, 347-353). Cocaine self-administration sessions were conducted in sixteen operant chambers; eight measuring 30×22×27 cm (l×w×h) and the other eight measuring 26×26×30 cm (l×w×h). Each chamber was situated inside a sound-attenuating box and was equipped with two retractable levers, a white light above each lever, and a tether. Polyethylene tubing, covered by the tether, connected the animal, through a fluid swivel, to a syringe in a syringe pump (Razel, 3.33 rpm). Cocaine was dissolved in 0.9% saline to achieve doses of 0.375, 0.75 and 1.5 mg/kg/injection. […] Each animal was tested with one dose of the D3 antagonist, randomly determined, at as many of the three cocaine doses as possible. After a particular test the animal's cocaine dose was changed to another one (randomly determined) and its baseline BP on the new dose was established. BP during the test session was expressed as the percentage of the average BP obtained during the last three baseline sessions. Percentage of baseline BP and final ratio (i.e. the number of lever presses required for the BP infusion) were analyzed using separate two-way analyses of variance (ANOVAs) with dose of 113 and dose of cocaine as between-groups factors. […]

[2] = target: D2LR (Homo sapiens (Human), UniProt P14416); experiment: β-Arrestin Recruitment Assay, CHO-K1 DRD2L; assay type: cell-based; settings: antagonist vs EC80 6 nM Pergolide, CHO-K1 DRD2L cells; read-out: D2 IC50
Experimental: Antagonist potency of the compounds against agonist induced recruitment of β-arrestin by D3R and D2LR was measured using DiscoverRx PathHunter eXpress kits. […] After incubation at 37° C. for 90 min, the DiscoveRx detection reagent was added, the plates were incubated at room temperature for 60 min and the luminescence was measured on a Synergy 4 plate reader (BioTek). The data were plotted and the agonist EC80 values were calculated using GraphPad Prism software. For antagonist activity, the cells were plated as described above and treated with multiple concentrations (starting from 500 nM, half log dilution, 10 dose points) of the test compounds in Plating Reagent with 0.1% DMSO.

[3] = target: human D2-long dopamine receptor (Homo sapiens (Human), UniProt P14416); experiment: Radioligand binding (125I-IABN competition), D2; settings: HEK cell membranes expressing human D2-long
Experimental: The affinities of the target compounds were determined using radioligand binding experiments. […] Competition curves were modeled for a single site. Data from competition dose-response curves were analyzed using Tablecurve program (Jandel). IC50 values were converted to equilibrium dissociation constants (Ki values) using the Cheng and Prusoff correction.

[4] = target: T1, D3R (Homo sapiens (Human), UniProt P35462); experiment: [35S]GTPγS Binding Assay, CHO D3 membranes; assay type: biochemical; settings: antagonist vs dopamine; Ke = functional Ki; read-out: CHO-hD3 Ke
Experimental: Chinese hamster ovary (CHO) cells expressing human D2L and D3 receptors served as the source for membrane fractions which were washed and resuspended with assay buffer containing Mg^2+, Na^+, EGTA, and bovine serum albumin. […] After preincubation with test compounds, cell membranes and GDP for 15 minutes at 30° C. in a shaking water bath, [^35S]GTPγS was added and incubation proceeded for an additional 45 minutes. Cell membranes were harvested on Brandel GF/B filtermats with a 24-pin Brandel harvester (Biomedical Research & Development Laboratories, Inc., Gaithersburg, Md.). […] Antagonist activity was assessed by testing a fixed concentration of the test compound and varying concentration of the agonist, dopamine (0.001-100 μM for CHO D2 and 0.1 nM-10 uM for CHO D3).

[5] = target: T1, D3R; experiment: D3 Mitogenesis Functional Assay (3H-thymidine uptake, CHOp-D3 cells); assay type: cell-based
In short: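 CHO cells expressing human D3, serum-starved 24 h, then given compound (agonist mode) or antagonist plus 30 nM quinpirole final for 16 h at 37 °C. A 2 h [3H]thymidine pulse was used for uptake.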

T1 sequence (P35462 whole entry): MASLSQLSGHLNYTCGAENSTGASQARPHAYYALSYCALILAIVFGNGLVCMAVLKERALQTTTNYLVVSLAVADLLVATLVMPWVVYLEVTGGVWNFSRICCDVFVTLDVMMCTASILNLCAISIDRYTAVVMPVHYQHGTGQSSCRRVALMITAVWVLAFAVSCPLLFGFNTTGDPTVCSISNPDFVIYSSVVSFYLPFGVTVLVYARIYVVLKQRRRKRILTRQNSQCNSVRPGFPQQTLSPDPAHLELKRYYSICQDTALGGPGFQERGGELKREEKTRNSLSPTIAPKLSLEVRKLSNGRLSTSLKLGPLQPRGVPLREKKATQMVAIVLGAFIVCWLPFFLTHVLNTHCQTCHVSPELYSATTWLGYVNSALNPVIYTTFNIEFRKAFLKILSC
D2LR, sequence (P14416 whole entry): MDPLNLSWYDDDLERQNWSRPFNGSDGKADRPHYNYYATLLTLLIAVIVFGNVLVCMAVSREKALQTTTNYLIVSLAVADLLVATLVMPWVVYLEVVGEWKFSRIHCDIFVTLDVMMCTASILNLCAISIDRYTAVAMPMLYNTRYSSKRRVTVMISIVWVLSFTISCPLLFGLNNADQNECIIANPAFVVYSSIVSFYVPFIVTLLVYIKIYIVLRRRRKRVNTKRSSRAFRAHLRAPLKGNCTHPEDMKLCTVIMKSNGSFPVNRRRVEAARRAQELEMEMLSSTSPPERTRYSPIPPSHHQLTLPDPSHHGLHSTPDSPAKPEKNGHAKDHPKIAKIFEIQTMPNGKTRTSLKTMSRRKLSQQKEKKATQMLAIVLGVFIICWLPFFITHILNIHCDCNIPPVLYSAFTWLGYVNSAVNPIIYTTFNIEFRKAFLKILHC
human D2-long dopamine receptor, sequence (P14416 whole entry): as above

With `CC(C)(C)c1nc(N2CCN(CCCCNC(=O)c3cn4ccccc4n3)CC2)cc(C(F)(F)F)n1` [Compound 113, N-(4-(4-(2-(tert-Butyl)-6-(trifluoromethyl)pyrimidin-4-yl)piperazin-1-yl)butyl)imidazo[1,2-a]pyridine-2-carboxamide] as the compound, how does the “percentage of baseline BPs for cocaine under PR schedule” value [1] read?
Its value is “significant reductions in the percentage of baseline BPs”.

And the IC50 [2]?
Its IC50 is 261 ± 54 nM.

What about the Ki [3] of the same compound?
Its Ki is 511 ± 65.6 nM.

And the Ki [4]?
The Ki was 1.32 ± 0.35 nM.

What about the Emax at 10 µM ([5]; at 10 μM, % maximum stimulation vs quinpirole (100%), read-out: D3 Agonist Emax) of the same compound?
Its Emax at 10 µM is 0%.

What about the IC50 ([5]; inhibition of quinpirole (30 nM final) stimulation of mitogenesis, read-out: D3 Antagonist IC50) of the same compound?
The IC50 was 157 ± 34 nM.
